Where “and” joins values, the source holds several entries; their conditions need not be identical. Identical values can stand only once.
Molecular target: T1, wt-HVGH TtIleRS2 (Thermus thermophilus, UniProt P56690)
T1 construct: hexa-histidine tag (pET28b(+)) (N); made in house; host or cells: E. coli Rosetta2 (DE3)
T1 sequence (P56690 1-1043): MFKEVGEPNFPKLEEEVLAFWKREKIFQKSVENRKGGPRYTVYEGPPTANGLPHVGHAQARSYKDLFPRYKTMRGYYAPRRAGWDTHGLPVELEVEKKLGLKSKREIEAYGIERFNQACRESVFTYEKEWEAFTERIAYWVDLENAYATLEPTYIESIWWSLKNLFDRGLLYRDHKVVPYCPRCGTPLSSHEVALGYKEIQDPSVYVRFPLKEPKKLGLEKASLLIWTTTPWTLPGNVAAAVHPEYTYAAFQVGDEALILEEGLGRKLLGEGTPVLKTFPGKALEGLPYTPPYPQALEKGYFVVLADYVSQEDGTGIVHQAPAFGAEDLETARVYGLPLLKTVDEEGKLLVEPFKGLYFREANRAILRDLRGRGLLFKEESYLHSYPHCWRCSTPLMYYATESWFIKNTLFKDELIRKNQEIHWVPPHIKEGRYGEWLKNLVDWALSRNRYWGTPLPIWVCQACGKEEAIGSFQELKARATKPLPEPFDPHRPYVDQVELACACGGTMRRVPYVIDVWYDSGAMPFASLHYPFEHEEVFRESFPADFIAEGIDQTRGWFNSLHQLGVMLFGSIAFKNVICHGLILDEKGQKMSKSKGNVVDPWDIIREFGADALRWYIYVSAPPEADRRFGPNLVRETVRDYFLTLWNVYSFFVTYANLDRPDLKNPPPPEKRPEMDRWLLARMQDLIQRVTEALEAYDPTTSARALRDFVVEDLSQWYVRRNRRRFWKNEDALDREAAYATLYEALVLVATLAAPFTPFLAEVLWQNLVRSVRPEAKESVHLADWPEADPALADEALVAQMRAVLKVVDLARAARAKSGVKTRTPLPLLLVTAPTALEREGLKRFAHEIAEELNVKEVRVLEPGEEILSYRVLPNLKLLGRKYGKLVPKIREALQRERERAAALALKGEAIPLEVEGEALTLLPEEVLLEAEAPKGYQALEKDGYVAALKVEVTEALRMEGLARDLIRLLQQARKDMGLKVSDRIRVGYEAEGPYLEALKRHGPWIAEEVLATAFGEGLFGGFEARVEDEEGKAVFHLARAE
Assay: ATP-PPi exchange assay, mupirocin inhibition of amino acid activation
Type: biochemical
Protocol: L-Ile and ATP concentrations ranged from 1/10 KM to 10 KM values. When measuring the KI towards one of the substrates, the other was held in saturation (concentrations at least 10 KM). The aliquots of the reaction mixture (1–2.5 μl) were quenched in 2 volumes of 500 mM NaOAc pH = 4.5, 0.1% SDS, and formed ^32P-ATP was separated from the remaining ^32P-PPi by thin-layer chromatography on Polygram CEL 300 PEI UV254 TLC plates (Macherey-Nagel, cat: 801063) using 750 mM KH2PO4 pH=3.5, 4 M urea buffer. Visualization and quantification of the signals was performed using a Typhoon Phosphoimager 5 (General Electric) and accompanying ImageQuant™ TL software (SV: 10.2). The kinetic constants were determined using a global fit option of the competitive inhibition model of GraphPad Prism 6 software (SV: 6.01). All experiments were performed in triplicates. The kcat was determined by dividing the maximal velocity, VM, with the used enzyme concentration. […]
variable substrate (ATP or Ile) was varied in the range of 0.1 KM to 10 KM. The other substrate (Ile or ATP) was kept in excess at 5 to 10 KM. Data were globally fitted to the competitive inhibition model using GraphPad prism 6.01 for Windows software. The values represent the average value ± SD of three independent experiments. Source data are provided as a Source Data file.

Q: C/C(=C\C(=O)OCCCCCCCCC(=O)O)C[C@@H]1OC[C@H](C[C@@H]2O[C@H]2[C@@H](C)[C@H](C)O)[C@@H](O)[C@H]1O [mupirocin] was tested. Which Ki (KI (MUP)ATP, amino acid activation assay, ATP as variable substrate, average ± SD of three independent experiments) did it give?
A: 200 ± 10 nM

Q: What about the Ki (KI (MUP)Ile, amino acid activation step, ATP/PPi exchange assay, Ile varied, ATP saturating, average ± SD of three independent experiments) of the same molecule?
A: 200 ± 10 nM

Q: And the Ki (KI, single replicates, mupirocin inhibition towards Ile, GraphPad Prism output, Repl1-Repl3)?
A: 190 nM and 200 nM (3×)

Q: And the initial velocity vo (c(mupirocin) 0.25 μM, c(ATP) 0.5 mM)?
A: 0.00545 mM/min and 0.00625 mM/min and 0.00878 mM/min

Q: What about the initial velocity vo (c(mupirocin) 0.25 μM, c(ATP) 1.0 mM) of the same molecule?
A: 0.00989 mM/min and 0.00933 mM/min and 0.0106 mM/min

Q: What about the initial velocity vo (c(mupirocin) 0.25 μM, c(ATP) 2.5 mM) of the same molecule?
A: 0.01904 mM/min and 0.0219 mM/min and 0.02129 mM/min

Q: And the initial velocity vo (c(mupirocin) 0.25 μM, c(ATP) 5.0 mM)?
A: 0.03233 mM/min and 0.03269 mM/min and 0.0316 mM/min

Q: And the initial velocity vo (c(mupirocin) 0.25 μM, c(ATP) 10.0 mM)?
A: 0.04434 mM/min and 0.04682 mM/min and 0.04511 mM/min

Q: And the initial velocity vo (c(mupirocin) 0.25 μM, c(ATP) 15.0 mM)?
A: 0.0472 mM/min and 0.05017 mM/min and 0.05086 mM/min

Q: What about the initial velocity vo (c(mupirocin) 0.25 μM, c(Ile) 5.0 μM) of the same molecule?
A: 0.00612 mM/min and 0.00672 mM/min and 0.00733 mM/min

Q: What about the initial velocity vo (c(mupirocin) 0.25 μM, c(Ile) 15.0 μM) of the same molecule?
A: 0.0169 mM/min and 0.01596 mM/min

Q: And the initial velocity vo (c(mupirocin) 0.5 μM, c(ATP) 0.5 mM)?
A: 0.00322 mM/min and 0.00373 mM/min and 0.00334 mM/min

Q: And the initial velocity vo (c(mupirocin) 0.5 μM, c(ATP) 1.0 mM)?
A: 0.00754 mM/min and 0.00751 mM/min and 0.00747 mM/min

Q: And the initial velocity vo (c(mupirocin) 0.5 μM, c(ATP) 2.5 mM)?
A: 0.01415 mM/min and 0.01653 mM/min and 0.01647 mM/min

Q: And the initial velocity vo (c(mupirocin) 0.5 μM, c(ATP) 5.0 mM)?
A: 0.02341 mM/min and 0.024 mM/min and 0.02727 mM/min

Q: And the initial velocity vo (c(mupirocin) 0.5 μM, c(ATP) 10.0 mM)?
A: 0.03666 mM/min and 0.03855 mM/min and 0.03894 mM/min

Q: What about the initial velocity vo (c(mupirocin) 0.5 μM, c(ATP) 15.0 mM) of the same molecule?
A: 0.04188 mM/min and 0.04379 mM/min and 0.0434 mM/min

Q: And the initial velocity vo (c(mupirocin) 0.5 μM, c(Ile) 5.0 μM)?
A: 0.00349 mM/min and 0.00358 mM/min and 0.00422 mM/min

Q: What about the initial velocity vo (c(mupirocin) 0.5 μM, c(Ile) 15.0 μM) of the same molecule?
A: 0.01037 mM/min and 0.01135 mM/min and 0.01134 mM/min

Q: And the initial velocity vo (c(mupirocin) 1.0 μM, c(ATP) 1.0 mM)?
A: 0.00403 mM/min and 0.00377 mM/min and 0.00474 mM/min

Q: And the initial velocity vo (c(mupirocin) 1.0 μM, c(ATP) 2.5 mM)?
A: 0.00961 mM/min and 0.01146 mM/min and 0.01193 mM/min

Q: What about the initial velocity vo (c(mupirocin) 1.0 μM, c(ATP) 5.0 mM) of the same molecule?
A: 0.01986 mM/min and 0.02034 mM/min and 0.01615 mM/min

Q: What about the initial velocity vo (c(mupirocin) 1.0 μM, c(ATP) 10.0 mM) of the same molecule?
A: 0.02901 mM/min and 0.02831 mM/min and 0.02535 mM/min

Q: And the initial velocity vo (c(mupirocin) 1.0 μM, c(ATP) 15.0 mM)?
A: 0.03565 mM/min and 0.03315 mM/min and 0.03301 mM/min

Q: And the initial velocity vo (c(mupirocin) 1.0 μM, c(Ile) 5.0 μM)?
A: 0.0018 mM/min and 0.00161 mM/min and 0.00213 mM/min

Q: What about the initial velocity vo (c(mupirocin) 1.0 μM, c(Ile) 15.0 μM) of the same molecule?
A: 0.00627 mM/min and 0.00604 mM/min and 0.00608 mM/min

Q: And the initial velocity vo (c(mupirocin) 1.0 μM, c(Ile) 50.0 μM)?
A: 0.01613 mM/min and 0.01634 mM/min and 0.01627 mM/min

Q: And the initial velocity vo (c(mupirocin) 2.5 μM, c(ATP) 2.5 mM)?
A: 0.00405 mM/min and 0.00296 mM/min and 0.00525 mM/min

Q: And the initial velocity vo (c(mupirocin) 2.5 μM, c(ATP) 5.0 mM)?
A: 0.00797 mM/min and 0.00918 mM/min and 0.01147 mM/min

Q: And the initial velocity vo (c(mupirocin) 2.5 μM, c(ATP) 10.0 mM)?
A: 0.01533 mM/min and 0.01708 mM/min and 0.0168 mM/min

Q: And the initial velocity vo (c(mupirocin) 2.5 μM, c(ATP) 15.0 mM)?
A: 0.02441 mM/min and 0.0241 mM/min and 0.02037 mM/min

Q: What about the initial velocity vo (c(mupirocin) 5.0 μM, c(ATP) 2.5 mM) of the same molecule?
A: 0.00309 mM/min and 0.0024 mM/min and 0.0026 mM/min

Q: What about the initial velocity vo (c(mupirocin) 5.0 μM, c(ATP) 5.0 mM) of the same molecule?
A: 0.00527 mM/min and 0.00709 mM/min and 0.00659 mM/min

Q: And the initial velocity vo (c(mupirocin) 5.0 μM, c(ATP) 10.0 mM)?
A: 0.01002 mM/min and 0.00944 mM/min and 0.01333 mM/min

Q: And the initial velocity vo (c(mupirocin) 5.0 μM, c(ATP) 15.0 mM)?
A: 0.01409 mM/min and 0.01329 mM/min

Q: And the initial velocity vo (c(mupirocin) 5.0 μM, c(Ile) 5.0 μM)?
A: 0.00137 mM/min and 0.00102 mM/min and 0.00071 mM/min

Q: And the initial velocity vo (c(mupirocin) 5.0 μM, c(Ile) 15.0 μM)?
A: 0.00213 mM/min and 0.00316 mM/min and 0.00307 mM/min
